pIC50: −log10 of the molar value. The source made the active and inactive calls. The rule behind the calls is not given here.
Tests used:
Acetylcholinesterase [1] = molecular target: T1, Acetylcholinesterase (Homo sapiens, UniProt P22303); assay: Inhibition of human recombinant AChE expressed in HEK293 cells using acetylthiocholine iodide as substrate preincubated with compound for 30 mins followed by substrate addition and measured after 30 mins by DTNB reagent based Ellman's method
Cholinesterase = Cholinesterase (Equus caballus, UniProt P81908); assay: Inhibition of equine serum BChE using acetylthiocholine iodide as substrate preincubated with compound for 30 mins followed by substrate addition and measured after 30 mins by DTNB reagent based Ellman's method
Cholinesterase, sequence (P81908 whole entry): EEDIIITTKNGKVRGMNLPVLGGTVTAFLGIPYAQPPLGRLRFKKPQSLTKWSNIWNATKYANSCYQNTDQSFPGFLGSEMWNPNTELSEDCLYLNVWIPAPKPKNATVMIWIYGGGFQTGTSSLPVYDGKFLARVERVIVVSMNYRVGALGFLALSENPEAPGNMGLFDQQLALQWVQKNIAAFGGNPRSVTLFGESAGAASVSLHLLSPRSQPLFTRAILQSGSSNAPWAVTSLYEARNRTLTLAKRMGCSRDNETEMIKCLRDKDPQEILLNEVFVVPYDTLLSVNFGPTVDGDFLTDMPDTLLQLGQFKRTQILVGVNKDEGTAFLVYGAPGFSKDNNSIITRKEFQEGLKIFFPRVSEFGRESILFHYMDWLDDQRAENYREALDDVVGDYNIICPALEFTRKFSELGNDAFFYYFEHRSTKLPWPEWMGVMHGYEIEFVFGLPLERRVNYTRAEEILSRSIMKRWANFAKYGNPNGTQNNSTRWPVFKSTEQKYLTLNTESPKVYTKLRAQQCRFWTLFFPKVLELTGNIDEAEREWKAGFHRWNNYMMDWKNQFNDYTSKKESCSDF

Acetylcholinesterase [2] = molecular target: T1, Acetylcholinesterase; assay: Displacement of propidium iodide from human AChE PAS assessed as reduction in fluorescence intensity at 5 uM incubated for 6 hrs by fluorescence based analysis relative to control; parameters: scale not given: the % may be the effect or the level left
Acetylcholinesterase [3] = molecular target: T1, Acetylcholinesterase; assay: Displacement of propidium iodide from human AChE PAS assessed as reduction in fluorescence intensity at 1 uM incubated for 6 hrs by fluorescence based analysis relative to control; parameters: scale not given: the % may be the effect or the level left
Acetylcholinesterase [4] = molecular target: T1, Acetylcholinesterase; assay: Displacement of propidium iodide from human AChE PAS assessed as reduction in fluorescence intensity at 0.1 uM incubated for 6 hrs by fluorescence based analysis relative to control; parameters: scale not given: the % may be the effect or the level left
Acetylcholinesterase [5] = molecular target: T1, Acetylcholinesterase; assay: Displacement of propidium iodide from human AChE PAS assessed as reduction in fluorescence intensity at 0.01 uM incubated for 6 hrs by fluorescence based analysis relative to control; parameters: scale not given: the % may be the effect or the level left
[6] = Antioxidant activity assessed as DPPH radical scavenging activity incubated for 30 mins; type: functional
PC-12 [7] = assay: Cytotoxicity against rat PC-12 cells assessed as cell viability upto 20 uM measured for 24 hrs by MTT assay; type: toxicity, cell-based; settings: pc-12, 24 h
PC-12 [8] = assay: Neuroprotective activity against H2O2-induced oxidative stress in rat PC-12 cells assessed as cell viability at 1 to 20 uM preincubated with compound for 24 hrs and followed by H2O2 induction and measured after 24 hrs by MTT assay; type: functional, cell-based; settings: dose 1-20 µM, time 48.0 hrs
PC-12 [9] = assay: Induction of apoptosis in rat PC-12 cells assessed as viable cells at 2.5 uM incubated for 24 hrs by Annexin V/PI staining based flow cytometry analysis (reference value: 82.8%); type: functional; settings: read-out: Activity
PC-12 [10] = assay: Induction of apoptosis in rat PC-12 cells assessed as viable cells at 10 uM incubated for 24 hrs by Annexin V/PI staining based flow cytometry analysis (reference value: 82.8%); type: functional; settings: read-out: Activity
PC-12 [11] = assay: Induction of apoptosis in rat PC-12 cells assessed as viable cells at 5 uM incubated for 24 hrs by Annexin V/PI staining based flow cytometry analysis (reference value: 82.8%); type: functional; settings: read-out: Activity
PC-12 [12] = assay: Induction of apoptosis in rat PC-12 cells assessed as viable cells at 20 uM incubated for 24 hrs by Annexin V/PI staining based flow cytometry analysis (reference value: 82.8%); type: functional; settings: read-out: Activity
[13] = Metal chelating activity assessed as compound-Fe2+ complex formation by measuring increase in absorption intensity at 300 uM in presence of by UV-vis spectrometry
[14] = Metal chelating activity assessed as compound-Cu2+ complex formation by measuring increase in absorption intensity at 300 uM in presence of by UV-vis spectrometry
[15] = Permeability of the compound across blood brain barrier; type: ADME; settings: read-out: BBB
[16] = molecular target: Amyloid-beta precursor protein (Homo sapiens) (UniProt P05067); assay: Inhibition of amyloid beta (1 to 42) (unknown origin) self induced aggregation at 1.521 uM incubated for 72 hrs by ThT fluorescence based assay
Amyloid-beta precursor protein (Homo sapiens), sequence (P05067 whole entry): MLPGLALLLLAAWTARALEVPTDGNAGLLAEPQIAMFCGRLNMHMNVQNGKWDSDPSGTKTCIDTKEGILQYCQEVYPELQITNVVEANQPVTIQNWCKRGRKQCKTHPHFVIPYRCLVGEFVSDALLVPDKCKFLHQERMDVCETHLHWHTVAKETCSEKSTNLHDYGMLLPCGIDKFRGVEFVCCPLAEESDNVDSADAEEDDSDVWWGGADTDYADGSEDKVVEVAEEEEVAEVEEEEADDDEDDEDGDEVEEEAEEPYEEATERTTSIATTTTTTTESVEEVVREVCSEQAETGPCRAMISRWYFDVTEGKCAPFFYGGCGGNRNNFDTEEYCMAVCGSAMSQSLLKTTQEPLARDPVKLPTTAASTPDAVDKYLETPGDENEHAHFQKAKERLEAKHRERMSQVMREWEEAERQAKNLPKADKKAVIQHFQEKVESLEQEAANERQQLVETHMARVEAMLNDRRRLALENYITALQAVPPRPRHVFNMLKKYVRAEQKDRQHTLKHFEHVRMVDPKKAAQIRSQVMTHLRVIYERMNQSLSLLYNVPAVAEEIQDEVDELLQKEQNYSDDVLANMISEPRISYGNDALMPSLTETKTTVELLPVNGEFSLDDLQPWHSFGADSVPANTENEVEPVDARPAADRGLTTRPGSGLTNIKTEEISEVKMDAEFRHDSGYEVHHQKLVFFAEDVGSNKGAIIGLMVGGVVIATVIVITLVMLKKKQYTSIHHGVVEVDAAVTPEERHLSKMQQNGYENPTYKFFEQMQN

[17] = molecular target: Amyloid-beta precursor protein (Homo sapiens) (UniProt P05067); assay: Inhibition of amyloid beta (1 to 42) (unknown origin) self induced aggregation at 1.521 uM incubated for 72 hrs by transmission electron microscopic analysis
[18] = Toxicity in Drosophila melanogaster Oregon R-positive assessed as reduction in eclosed flies at 40 uM measured for 15 days relative to control; parameters: scale not given: the % may be the effect or the level left; settings: 360 h, time 15 day
[19] = Acute toxicity in Swiss albino mouse assessed as body weight gain at 175 mg/kg, po administered for 14 days; type: organism-based; settings: in vivo, 336 h, time 14 day
Drosophila melanogaster [20] = assay: Anti-alzheimer activity in ey-GAL4 driven UAS-amyloid beta (1 to 42) induced Drosophila melanogaster Oregon R-positive assessed as fold increase in superoxide level at 10 uM by fluorescence based analysis; type: functional
Drosophila melanogaster [21] = assay: Inhibition of oxidative stress in y-GAL4 driven UAS-amyloid beta (1 to 42) induced Drosophila melanogaster Oregon R-positive assessed as fold increase in ROS level at 10 to 20 uM incubated for 30 mins by H2DCFDA staining based analysis; type: functional; settings: dose 10-20 µM, 0.5 h
[22] = Acute toxicity in Swiss albino mouse assessed as animal survival at 175 mg/kg, po administered for 14 days; type: organism-based; settings: in vivo, 336 h, time 14 day
[23] = Acute toxicity in Swiss albino mouse assessed as abnormal behavior at 175 mg/kg, po administered for 14 days; type: organism-based; settings: in vivo, 336 h, time 14 day
[24] = Acute toxicity in Swiss albino mouse assessed as convulsion at 175 mg/kg, po administered for 14 days; type: organism-based; settings: in vivo, 336 h, time 14 day
[25] = Acute toxicity in Swiss albino mouse assessed as tremor at 175 mg/kg, po administered for 14 days; type: organism-based; settings: in vivo, 336 h, time 14 day
Mus musculus [26] = assay: Antialzheimer activity in scopolamine-induced Swiss albino mouse model assessed as decrease in escape latency at 0.3 to 0.5 mg/kg, po preincubated with compound for 30 mins followed by scopolamine induction and measured after 5 days by Morris water maze test; type: functional, organism-based; settings: dose 0.3-0.5 mg/kg, time 7230.0 min
Mus musculus [27] = assay: Antialzheimer activity in scopolamine-induced Swiss albino mouse model assessed as improvement in memory retention by measuring time spent in platform quadrant at 0.3 to 0.5 mg/kg, po preincubated with compound for 30 mins followed by scopolamine induction and measured after 5 days by Morris water maze test; type: functional, organism-based; settings: dose 0.3-0.5 mg/kg, time 7230.0 min
Mus musculus [28] = assay: Antialzheimer activity in scopolamine-induced Swiss albino mouse model assessed as reduction in AChE level at 0.3 to 0.5 mg/kg, po preincubated with compound for 30 mins followed by scopolamine induction and measured after 30 mins; type: functional, organism-based; settings: dose 0.3-0.5 mg/kg, time 1.0 hrs
Mus musculus [29] = assay: Antialzheimer activity in scopolamine-induced Swiss albino mouse model assessed as reduction in BChE level at 0.3 to 0.5 mg/kg, po preincubated with compound for 30 mins followed by scopolamine induction and measured after 30 mins; type: functional, organism-based; settings: dose 0.3-0.5 mg/kg, time 1.0 hrs
Mus musculus [30] = assay: Antioxidant activity against scopolamine-induced Swiss albino mouse model assessed as increase in SOD level at 0.3 to 0.5 mg/kg, po by absorbance based analysis; type: functional, organism-based; settings: dose 0.3-0.5 mg/kg
Mus musculus [31] = assay: Antioxidant activity against scopolamine-induced Swiss albino mouse model assessed as increase in catalase level in brain at 0.3 to 0.5 mg/kg, po by absorbance based analysis; type: functional, organism-based; settings: dose 0.3-0.5 mg/kg
Mus musculus [32] = assay: Antioxidant activity against scopolamine-induced Swiss albino mouse model assessed as increase in MDA level at 0.3 to 0.5 mg/kg, po by absorbance based analysis; type: functional, organism-based; settings: dose 0.3-0.5 mg/kg
Mus musculus [33] = assay: Neuroprotective activity against scopolamine-induced Swiss albino mouse model assessed as increase in CREB1 mRNA level at 0.3 to 0.5 mg/kg, po measured after 6 days by RT-PCR analysis; type: functional, organism-based; settings: dose 0.3-0.5 mg/kg, time 6.0 day
Mus musculus [34] = assay: Neuroprotective activity against scopolamine-induced Swiss albino mouse model assessed as increase in C-FOS mRNA level at 0.3 to 0.5 mg/kg, po measured after 6 days by RT-PCR analysis; type: functional, organism-based; settings: dose 0.3-0.5 mg/kg, time 6.0 day
Mus musculus [35] = assay: Neuroprotective activity against scopolamine-induced Swiss albino mouse model assessed as increase in NR4A2 mRNA level at 0.3 to 0.5 mg/kg, po measured after 6 days by RT-PCR analysis; type: functional, organism-based; settings: dose 0.3-0.5 mg/kg, time 6.0 day
Mus musculus [36] = assay: Neuroprotective activity against scopolamine-induced Swiss albino mouse model assessed as effect on GAP43 mRNA level at 0.3 to 0.5 mg/kg, po measured after 6 days by RT-PCR analysis; type: functional, organism-based; settings: dose 0.3-0.5 mg/kg, time 6.0 day
Mus musculus [37] = assay: Neuroprotective activity against scopolamine-induced Swiss albino mouse model assessed as effect on PSD95 mRNA level at 0.3 to 0.5 mg/kg, po measured after 6 days by RT-PCR analysis; type: functional, organism-based; settings: dose 0.3-0.5 mg/kg, time 6.0 day
Mus musculus [38] = assay: Neuroprotective activity against scopolamine-induced Swiss albino mouse model assessed as upregulation of PKA mRNA level at 0.3 to 0.5 mg/kg, po measured after 6 days by RT-PCR analysis; type: functional, organism-based; settings: dose 0.3-0.5 mg/kg, time 6.0 day
Mus musculus [39] = assay: Neuroprotective activity against scopolamine-induced Swiss albino mouse model assessed as upregulation of MMP9 mRNA level at 0.3 to 0.5 mg/kg, po measured after 6 days by RT-PCR analysis; type: functional, organism-based; settings: dose 0.3-0.5 mg/kg, time 6.0 day

T1 sequence (P22303 whole entry): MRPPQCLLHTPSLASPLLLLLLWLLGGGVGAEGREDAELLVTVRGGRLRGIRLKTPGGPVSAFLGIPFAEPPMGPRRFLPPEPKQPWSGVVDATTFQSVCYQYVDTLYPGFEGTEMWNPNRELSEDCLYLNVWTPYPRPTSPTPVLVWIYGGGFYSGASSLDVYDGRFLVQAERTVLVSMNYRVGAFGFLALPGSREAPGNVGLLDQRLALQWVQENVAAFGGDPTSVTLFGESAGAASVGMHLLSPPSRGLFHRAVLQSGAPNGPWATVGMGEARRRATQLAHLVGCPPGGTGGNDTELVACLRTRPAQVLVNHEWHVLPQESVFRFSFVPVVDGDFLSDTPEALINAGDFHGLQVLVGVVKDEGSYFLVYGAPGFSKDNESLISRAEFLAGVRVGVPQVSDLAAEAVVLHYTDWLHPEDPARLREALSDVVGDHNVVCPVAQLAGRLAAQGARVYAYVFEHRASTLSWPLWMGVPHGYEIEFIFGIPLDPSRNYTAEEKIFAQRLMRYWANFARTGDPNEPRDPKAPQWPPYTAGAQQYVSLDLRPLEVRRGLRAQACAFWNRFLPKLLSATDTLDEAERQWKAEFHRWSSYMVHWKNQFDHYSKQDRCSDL

## C[C@@H](c1cccc(OC(=O)NCCc2c[nH]c3ccc(O)cc23)c1)N(C)C
Acetylcholinesterase [1]
  pIC50: 9.00
Cholinesterase
  pIC50: 7.56
Acetylcholinesterase [2]
  Activity: 26.2%
Acetylcholinesterase [3]
  Activity: 18.3%
Acetylcholinesterase [4]
  Activity: 5.56%
Acetylcholinesterase [5]
  Activity: 3.54%
[6]
  pIC50: 4.64
PC-12 [7]
  Activity: Non-toxic
PC-12 [8]
  Activity: Active
PC-12 [9]
  viability at 2.5 µM: 65.9%
PC-12 [10]
  viability at 10 µM: 63.3%
PC-12 [11]
  viability at 5 µM: 71.3%
PC-12 [12]
  viability at 20 µM: 80.7%
[13]
  Activity: inactive
[14]
  Activity: inactive
[15]
  Papp: 11.5 ×10⁻⁶ cm/s
[16]
  inhibition: 100%
[17]
  inhibition: Active
[18]
  Activity: 9%
[19]
  Activity: Non-toxic
Drosophila melanogaster [20]
  fold change (FC): 1.25
Drosophila melanogaster [21]
  fold change (FC): 1.8
[22]
  Activity: Non-toxic
[23]
  Activity: Non-toxic
[24]
  Activity: Non-toxic
[25]
  Activity: Non-toxic
Mus musculus [26]
  Activity: Active
Mus musculus [27]
  Activity: Active
Mus musculus [28]
  Activity: Active
Mus musculus [29]
  Activity: Active
Mus musculus [30]
  Activity: Active
Mus musculus [31]
  Activity: Active
Mus musculus [32]
  Activity: Active
Mus musculus [33]
  Activity: Active
Mus musculus [34]
  Activity: Active
Mus musculus [35]
  Activity: Active
Mus musculus [36]
  Activity: Active
Mus musculus [37]
  Activity: Active
Mus musculus [38]
  Activity: Active
Mus musculus [39]
  Activity: Active
